According to patent US20250268982A1, “COMPOSITIONS AND METHODS FOR TREATMENT AND/OR PROPHYLAXIS OF PROTEINOPATHIES” (REGAIN THERAPEUTICS SWEDEN AB, priority 2021, published 2025):

Experiments:
[1] = Thioflavin-T kinetics assay of aggregation propensity; format: physicochemical; details: 500 μg/ml peptide in normal saline, 12-24 h; FIGS. 6A, 6B
Method: THT method. ThT (Sigma-Aldrich) was prepared at 4 mM in MQ water. 50 μL of 500 μg/ml peptide (in normal saline) were incubated with 250 μL of 2.4 mM ThT solution (in water). ThT fluorescence was measured at 440 nm excitation and 480 nm emission in a black, clear-bottom 96-well plates (Corning, USA) at 10-15 min intervals (from bottom with periodic shaking) over 12-24 h on SpectraMax i3 microplate reader (Molecular Devices, USA). Curves were fitted using GraphPad Prism software.

5XFAD mice [2] = assay: Plaque load by immunohistochemistry in brains of 5XFAD mice; format: in vivo, mouse; details: 5XFAD mice treated for five weeks
Method: Female wild type and 5xFAD transgenic mice (Jackson laboratories) were used for the mouse behavioural experiment. Mice were individually housed in controlled humidity, temperature and light conditions, and had ad libitum access to food and water. Randomization to treatment groups was carried out by using GraphPad QuickCalcs (GraphPad Software, San Diego, CA, USA), and all data analysis was performed blinded to the experimental groups. All the animal experiments followed the Council of Europe Legislation and Regulation for Animal Protection and are approved by the National Animal Experiment Board of Finland. Every effort was made to minimize the harm and suffering of the animals. […]
Immunohistochemistry: The brains were post-fixed in 4% paraformaldehyde (PFA, Sigma-Aldrich, St. Louis, MO, USA) for 20 hours, followed by cryoprotection in 30% sucrose for 48 hours. […] For quantification of the immunoreactivities, hippocampal areas were imaged using 4 or 10× magnification on an AX70 microscope (Olympus corporation, Tokyo, Japan) with an adjacent digital camera (Color View 12 or F-View, Soft imaging system, Muenster, Germany) running AnalySis software (Soft Imaging System). Quantification of the immunoreactivities was performed using ImagePro Plus software (Media Cybernetics Inc., Rockville, MD, USA) at a predefined range and presented as relative immunoreactive area. […]

5XFAD mice [3] = assay: Nest building behavioural test in 5XFAD mice; format: in vivo, mouse; details: peptide i.v., FIGS. 4A-4C
Method: Female wild type and 5xFAD transgenic mice (Jackson laboratories) were used for the mouse behavioural experiment. Mice were individually housed in controlled humidity, temperature and light conditions, and had ad libitum access to food and water. Randomization to treatment groups was carried out by using GraphPad QuickCalcs (GraphPad Software, San Diego, CA, USA), and all data analysis was performed blinded to the experimental groups. […] Every effort was made to minimize the harm and suffering of the animals. The mice were treated with the vehicle or peptide preparations once a week i.v. starting at the age of 1 month until 3 months of age. Behavioral testing: the 5xFAD mice have deficits in nest building test starting at 3 months of age. Briefly, the soft bedding material and plastic shelter tube are moved to the one end of the cage and soft tissue paper (17 cm×17 cm) is placed in the other end of the cage. After 24 hours, a picture of the cage is taken, and the points given according to the set scale. 0 points are given if tissue paper remains untouched, 5 points are given when animal incorporates tissue into nest.

ERK1/2 phosphorylation = ERK1/2 phosphorylation ELISA in SH-SY5Y cells; format: cell-based; details: 30 pM peptide, 5 minutes, FIG. 16
Method: Phosphorylation of ERK is important for cell proliferation, neurogenesis and synaptic plasticity, and is downstream of calcium influx through the α7 receptor. To obtain the data shown in FIG. 16, SH-SY5Y cells were treated with 30 pM peptide for 5 minutes, then lysed and ERK phosphorylation quantified via a commercial ELISA kit.

Substance	aggregation propensity (thioflavin-T fluorescence) [1]	plaque load in the cortex versus vehicle treated animals (5XFAD mice [2]; FIG. 5A)	plaque accumulation in the hippocampi versus vehicle treated animals (5XFAD mice [2]; FIG. 5B)	phenotype restoration / rescue (behaviour) (5XFAD mice [3])	phenotype restoration / rescue (behaviour) (5XFAD mice [3]; listed as RT3)	downstream ERK1/2 phosphorylation (ERK1/2 phosphorylation)
SEQ ID NO:3: Aβ40: Aβ42 with deletion of residues 41 and 42 of the beta-sheet aggregation domain	lower aggregation propensity than wild type Aβ42	reduced plaque load in the cortex	decreased level of plaque accumulation in the hippocampi	phenotype restoration	phenotype rescue	
SEQ ID NO:88: Aβ42 analogue having a proline (P) substitution in place of methionine (M) at position 35 (M35P)	lower aggregation propensity than the peptide having SEQ ID NO:3			phenotype rescue		induces downstream ERK1/2 phosphorylation
SEQ ID NO: 190: Aβ42 analogue with N-methyl methionine substituted for the naturally occurring methionine at position 35	lower aggregation propensity than wild type Aβ42					induces downstream ERK1/2 phosphorylation
SEQ ID NO: 192: Aβ42 analogue with pyrrolysine substituted for the naturally occurring methionine at position 35	lower aggregation propensity than wild type Aβ42					
